ChEMBL document CHEMBL5126513 (Eur J Med Chem, 2022)
Blank lines part the entries; values can stand above or below the compound they belong to.

Key:
[1] = biological target: T1, Protein cereblon/Tyrosine-protein kinase BTK (Homo sapiens, UniProt Q06187+Q96SW2); assay: Protac activity at CRBN/BTK in human MINO cells assessed as BTK degradation; assay type: cell-based
[2] = biological target: T1, Protein cereblon/Tyrosine-protein kinase BTK; assay: Protac activity at CRBN (unknown origin)/BTK (unknown origin) assessed as BTK degradation; assay type: protein assay
[3] = biological target: T2, Tyrosine-protein kinase BTK (Homo sapiens, UniProt Q06187); assay: Inhibition of full-length wild-type BTK (unknown origin) measured by HTRF assay
[4] = biological target: T2, Tyrosine-protein kinase BTK; assay: Inhibition of BTK (unknown origin)
[5] = biological target: T3, Tyrosine-protein kinase TXK (Homo sapiens, UniProt P42681); assay: Inhibition of TXK (unknown origin)
T3 sequence (P42681 whole entry): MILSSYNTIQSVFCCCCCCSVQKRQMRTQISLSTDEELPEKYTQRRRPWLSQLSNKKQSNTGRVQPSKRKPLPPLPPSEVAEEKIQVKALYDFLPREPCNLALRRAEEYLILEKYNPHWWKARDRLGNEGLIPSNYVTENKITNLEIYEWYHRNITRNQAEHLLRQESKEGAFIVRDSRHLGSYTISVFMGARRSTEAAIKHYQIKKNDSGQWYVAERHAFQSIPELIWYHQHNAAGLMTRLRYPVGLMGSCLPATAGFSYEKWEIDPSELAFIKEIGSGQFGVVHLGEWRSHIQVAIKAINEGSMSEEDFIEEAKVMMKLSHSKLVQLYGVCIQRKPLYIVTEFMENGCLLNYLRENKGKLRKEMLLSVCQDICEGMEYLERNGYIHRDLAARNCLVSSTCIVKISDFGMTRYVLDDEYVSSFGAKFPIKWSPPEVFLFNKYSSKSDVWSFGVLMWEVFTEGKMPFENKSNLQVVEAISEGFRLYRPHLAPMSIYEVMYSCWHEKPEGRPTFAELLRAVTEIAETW

[6] = biological target: Tyrosine-protein kinase Blk (Homo sapiens, UniProt P51451); assay: Inhibition of BLK (unknown origin)
Chain of Tyrosine-protein kinase Blk (P51451 whole entry): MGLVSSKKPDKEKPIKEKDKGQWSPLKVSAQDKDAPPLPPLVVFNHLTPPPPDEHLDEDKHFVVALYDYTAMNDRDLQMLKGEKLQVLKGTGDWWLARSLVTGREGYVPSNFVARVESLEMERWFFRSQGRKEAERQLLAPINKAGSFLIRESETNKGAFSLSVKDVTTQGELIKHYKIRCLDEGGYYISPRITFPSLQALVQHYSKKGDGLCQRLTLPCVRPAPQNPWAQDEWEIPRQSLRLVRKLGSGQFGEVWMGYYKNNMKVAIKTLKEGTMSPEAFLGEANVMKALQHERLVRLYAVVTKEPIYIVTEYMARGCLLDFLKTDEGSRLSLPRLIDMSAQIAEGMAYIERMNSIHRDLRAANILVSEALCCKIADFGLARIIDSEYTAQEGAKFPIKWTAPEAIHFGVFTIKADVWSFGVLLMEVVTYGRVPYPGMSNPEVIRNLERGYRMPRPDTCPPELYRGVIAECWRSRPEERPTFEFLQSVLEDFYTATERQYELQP

T1 sequence (Q06187 whole entry): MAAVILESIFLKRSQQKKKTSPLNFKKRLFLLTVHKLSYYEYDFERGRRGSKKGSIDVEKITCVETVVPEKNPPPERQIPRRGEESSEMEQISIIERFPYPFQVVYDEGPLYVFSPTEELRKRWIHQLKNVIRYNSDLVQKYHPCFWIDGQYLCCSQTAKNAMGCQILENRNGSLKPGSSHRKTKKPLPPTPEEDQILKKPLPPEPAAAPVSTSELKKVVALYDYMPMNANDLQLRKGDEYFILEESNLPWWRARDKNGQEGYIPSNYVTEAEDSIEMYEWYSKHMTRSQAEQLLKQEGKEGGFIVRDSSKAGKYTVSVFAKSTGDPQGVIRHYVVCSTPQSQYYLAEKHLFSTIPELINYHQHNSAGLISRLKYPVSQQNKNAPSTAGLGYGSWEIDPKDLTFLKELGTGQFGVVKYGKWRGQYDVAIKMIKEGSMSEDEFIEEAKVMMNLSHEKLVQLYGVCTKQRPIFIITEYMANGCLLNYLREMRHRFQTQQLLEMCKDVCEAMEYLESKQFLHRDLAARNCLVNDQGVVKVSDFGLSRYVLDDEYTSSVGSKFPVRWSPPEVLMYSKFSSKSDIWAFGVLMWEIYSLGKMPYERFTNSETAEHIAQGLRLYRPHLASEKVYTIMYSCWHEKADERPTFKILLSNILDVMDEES
T1 sequence (Q96SW2 whole entry): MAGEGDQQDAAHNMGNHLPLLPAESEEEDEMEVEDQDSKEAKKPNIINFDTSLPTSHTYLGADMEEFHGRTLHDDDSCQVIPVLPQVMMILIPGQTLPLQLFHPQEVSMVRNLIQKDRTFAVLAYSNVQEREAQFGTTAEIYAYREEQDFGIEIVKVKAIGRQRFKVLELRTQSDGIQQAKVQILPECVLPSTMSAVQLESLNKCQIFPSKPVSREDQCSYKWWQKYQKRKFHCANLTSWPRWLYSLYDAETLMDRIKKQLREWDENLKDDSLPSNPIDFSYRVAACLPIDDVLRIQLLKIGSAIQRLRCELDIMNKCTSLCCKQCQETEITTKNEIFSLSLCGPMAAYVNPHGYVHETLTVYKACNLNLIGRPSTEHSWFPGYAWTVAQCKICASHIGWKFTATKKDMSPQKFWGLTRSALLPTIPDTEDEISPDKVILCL
T2 sequence (Q06187 whole entry): as the sequence (Q06187 whole entry) above

SMILES: Cc1cc(Nc2ncc3c(n2)N(C)CN(c2cc(NC(=O)c4cccc(C(F)(F)F)c4)ccc2C)C3)n(C)n1
IC50 [3]: 0.0107 µM

SMILES: COc1ccc(F)cc1C(=O)NCc1ccc(-c2nn([C@@H](C)C(F)(F)F)c(N)c2C(N)=O)cc1 [PIRTOBRUTINIB]
IC50 [4]: < 0.001 µM

SMILES: CC#CC(=O)N1CC[C@@H](n2c(=O)n(-c3ccc(Oc4ccccc4)cc3)c3c(N)ncnc32)C1 [TIRABRUTINIB]
IC50 [5]: 0.116 µM
IC50 [6]: 1.13 µM

Second part, the compound after the results:

DC50 [1]: 0.0092 µM
SMILES: Nc1ncnc2c1c(-c1ccc(Oc3ccccc3)cc1)nn2[C@@H]1CCCN(C(=O)c2cn(CCOCCOCCOCCCc3ccc4c(c3)CN(C3CCC(=O)NC3=O)C4=O)nn2)C1 (stereo partly specified)

DC50 [2]: 0.0419 µM
SMILES: O=C1CCC(N2C(=O)c3ccc(NCCOCCOCCOCCOCCOCCNC(=O)N[C@H]4CC[C@@H](Nc5ncnc6[nH]cc(C(=O)c7ccc(Oc8ccccc8)cc7Cl)c56)CC4)cc3C2=O)C(=O)N1 (stereo partly specified)
